From US11584749B2, “Phosphor-tetrazine compound and use thereof” (Spark Biopharma, Inc., priority 2018, dated 2023) come the findings set out here.

Structures are written as SMILES.

Data set [1] in a line: Second rate constant of the reaction with TCO. The format is physicochemical. The procedure:
(§1) In this test, the absorption spectrum was measured with a UV-VIS spectrophotometer UV-1650PC (Shimadzu), and the emission spectrum and motion data were measured using a Cary Eclipse Fluorescence spectrophotometer (Varian Associates), and the absolute quantum yield was measured with a QE-2000 (Otsuka Electronics).

Data set [2] can be described thus: Change in emission properties (quantum yield, excitation/emission maxima, fluorescence amplification) before and after reaction with TCO. It is filed as physicochemical. The note with it: for fluorescence amplification rate (on/off): before and after reaction with TCO; for fluorescence signal amplification efficiency after the reaction with TCO: long wavelength range, diethylamino group at R1. The method, then:
as §1
The emission spectrum was compared when the maximum fluorescence intensity was reached before and after the reaction of the compound and TCO, and changes in fluorescence of the compounds of Examples 1 to 4 and Comparative Examples 1 to 4 were observed, and the results are shown in Table 1 below.
The emission spectrum was compared when the maximum fluorescence intensity was reached before and after the reaction of the compound and TCO, and changes in fluorescence of the compounds of Examples 1 and 4 and Comparative Examples 3 to 6 were observed, and the results are shown in Table 2 below, FIGS. 3 and 4.

For the compound `CC(=O)c1ccn2c3c(c(-c4ccc(C(=O)NCc5ccc(-c6nnc(C)nn6)cc5)cc4)c2c1)CN(CCCNC(=O)OC(C)(C)C)C3=O` [Comparative Example 2, tert-butyl (3-(7-acetyl-9-(4-((4-(6-methyl-1,2,4,5-tetrazin-3-yl)benzyl)carbamoyl)phenyl)-3-oxo-1,3-dihydro-2H-pyrrolo[3,4-b]indolizin-2-yl)propyl)carbamate], the “K2 second rate constant value” in data set [1] (Table 1, measured at 20° C.) turned out to be 15 m^−1s^−1. In data set [2] (Table 1), the “λem maximum emission wavelength” value came out at 522 nm, the “λex largest excitation maxima at a given maximum emission wavelength” value (“λex largest excitation maxima” below) was determined as 401 nm, the “Φon absolute quantum yield after the reaction with TCO” value (shortened to “Φon absolute quantum yield”) is on record as 0.583 and the “fluorescence amplification rate (on/off)” value amounted to 14. Besides, in data set [2] (Table 1), the “Φoff absolute quantum yield before the reaction with TCO” value is recorded as 0.042.
Regarding `CCN(CC)c1ccc(-c2c3c(n4ccc(-c5nnc(C)nn5)cc24)C(=O)N(CCCNC(=O)OC(C)(C)C)C3)cc1` [Example 4, tert-butyl (3-(9-(4-(diethylamino)phenyl)-7-(6-methyl-1,2,4,5-tetrazin-3-yl)-3-oxo-1,3-dihydro-2H-pyrrolo[3,4-b]indolizin-2-yl)propyl)carbamate], the “K2 second rate constant value” in data set [1] (Table 1, measured at 20° C.) was determined as 22 m^−1s^−1. Further, the “K2 second rate constant value” in data set [1] (Table 2, measured at 20° C.) is 22 m^−1s^−1. Also, in data set [2] (Table 1), the “λem maximum emission wavelength” value came to 581 nm, the “λex largest excitation maxima” value worked out at 401 nm, the “Φon absolute quantum yield” value stood at 0.045 and the “fluorescence amplification rate (on/off)” value is greater than 600. The “Φoff absolute quantum yield before the reaction with TCO” value in data set [2] (Table 1) was found to be 0.001. Also, in data set [2] (Table 2), the “λem maximum emission wavelength” value is recorded as 581 nm, the “λex largest excitation maxima” value is recorded as 401 nm, the “Φon absolute quantum yield” value came out at 0.045 and the “fluorescence amplification rate (on/off)” value is on record as greater than 600. Also, in data set [2] (Table 2), the “Φoff absolute quantum yield before the reaction with TCO” value came out at 0.001 and the “fluorescence signal amplification efficiency after the reaction with TCO” value is “excellent”.
Regarding `CCN(CC)c1ccc(-c2c3c(n4ccc(C(C)=O)cc24)C(=O)N(CCCNC(=O)CCC(=O)NCc2ccc(-c4nnc(C)nn4)cc2)C3)cc1` [Comparative Example 6, N^1-(3-(7-acetyl-9-(4-(diethylamino)phenyl)-3-oxo-1,3-dihydro-2H-pyrrolo[3,4-b]indolizin-2-yl)propyl)-N^4-(4-(6-methyl-1,2,4,5-tetrazin-3-yl)benzyl)succinimide], the “K2 second rate constant value” in data set [1] (Table 2, measured at 20° C.) is on record as 1.2 m^−1s^−1. Further, in data set [2] (Table 2), the “λem maximum emission wavelength” value is 625 nm, the “λex largest excitation maxima” value is reported as 438 nm, the “Φon absolute quantum yield” value was 0.028 and the “fluorescence amplification rate (on/off)” value came out at 3. Besides, in data set [2] (Table 2), the “Φoff absolute quantum yield before the reaction with TCO” value is given as 0.013 and the “fluorescence signal amplification efficiency after the reaction with TCO” value is reported as “significantly reduced”.
Consider `CCN(CC)c1ccc(-c2c3c(n4ccc(C(=O)NCc5ccc(-c6nnc(C)nn6)cc5)cc24)C(=O)N(CCCNC(=O)OC(C)(C)C)C3)cc1` [Comparative Example 5, tert-butyl (3-(9-(4-(diethylamino)phenyl)-7-((4-(6-methyl-1,2,4,5-tetrazin-3-yl)benzyl)carbamoyl)-3-oxo-1,3-dihydro-2H-pyrrolo[3,4-b]indolizin-2-yl)propyl)carbamate], for which the “K2 second rate constant value” in data set [1] (Table 2, measured at 20° C.) is given as 15 m^−1s^−1. In data set [2] (Table 2), the “λem maximum emission wavelength” value is reported as 608 nm, the “λex largest excitation maxima” value amounted to 418 nm, the “Φon absolute quantum yield” value worked out at 0.016 and the “fluorescence amplification rate (on/off)” value is recorded as 30. In data set [2] (Table 2), the “Φoff absolute quantum yield before the reaction with TCO” value stood at 0.005 and the “fluorescence signal amplification efficiency after the reaction with TCO” value is given as “significantly reduced”.
Take `Cc1nnc(-c2ccn3c4c(c(-c5ccc(N)cc5)c3c2)CN(CCCNC(=O)OC(C)(C)C)C4=O)nn1` [Example 3, tert-butyl (3-(9-(4-aminophenyl)-7-(6-methyl-1,2,4,5-tetrazin-3-yl)-3-oxo-1,3-dihydro-2H-pyrrolo[3,4-b]indolizin-2-yl)propyl)carbamate]: the “K2 second rate constant value” in data set [1] (Table 1, measured at 20° C.) is 22 m^−1s^−1. Further, in data set [2] (Table 1), the “λem maximum emission wavelength” value amounted to 562 nm, the “λex largest excitation maxima” value is given as 390 nm, the “Φon absolute quantum yield” value was 0.064 and the “fluorescence amplification rate (on/off)” value is greater than 600. The “Φoff absolute quantum yield before the reaction with TCO” value in data set [2] (Table 1) was 0.002.
Consider `Cc1nnc(-c2ccn3c4c(c(-c5ccccc5)c3c2)CN(CCCNC(=O)OC(C)(C)C)C4=O)nn1` [Example 1, tert-butyl (3-(7-(6-methyl-1,2,4,5-tetrazin-3-yl)-3-oxo-9-phenyl-1,3-dihydro-2H-pyrrolo[3,4-b]indolizin-2-yl)propyl)carbamate], for which the “K2 second rate constant value” in data set [1] (Table 1, measured at 20° C.) is recorded as 24 m^−1s^−1. In data set [1] (Table 2, measured at 20° C.), the “K2 second rate constant value” is 24 m^−1s^−1. Besides, in data set [2] (Table 1), the “λem maximum emission wavelength” value is 484 nm, the “λex largest excitation maxima” value is recorded as 375 nm, the “Φon absolute quantum yield” value is given as 0.683 and the “fluorescence amplification rate (on/off)” value is reported as >1,000. For the same compound, the “Φoff absolute quantum yield before the reaction with TCO” value in data set [2] (Table 1) was found to be 0.002. Moreover, in data set [2] (Table 2), the “λem maximum emission wavelength” value was found to be 484 nm, the “λex largest excitation maxima” value came out at 375 nm, the “Φon absolute quantum yield” value came to 0.683 and the “fluorescence amplification rate (on/off)” value was >1,000. For the same compound, in data set [2] (Table 2), the “Φoff absolute quantum yield before the reaction with TCO” value worked out at 0.002 and the “fluorescence signal amplification efficiency after the reaction with TCO” value is reported as “excellent”.
`CC(=O)c1ccn2c3c(c(-c4ccccc4)c2c1)CN(CCCNC(=O)CCC(=O)NCc1ccc(-c2nnc(C)nn2)cc1)C3=O` [Comparative Example 4, N^1-(3-(7-acetyl-3-oxo-9-phenyl-1,3-dihydro-2H-pyrrolo[3,4-b]indolizin-2-yl)propyl)-N^4-(4-(6-methyl-1,2,4,5-tetrazin-3-yl)benzyl)succinimide]: the “K2 second rate constant value” in data set [1] (Table 1, measured at 20° C.) amounted to 8.5 m^−1s^−1. In addition, the “K2 second rate constant value” in data set [1] (Table 2, measured at 20° C.) is 8.5 m^−1s^−1. Further, in data set [2] (Table 1), the “λem maximum emission wavelength” value worked out at 530 nm, the “λex largest excitation maxima” value is 401 nm, the “Φon absolute quantum yield” value is given as 0.325 and the “fluorescence amplification rate (on/off)” value worked out at 24. In data set [2] (Table 1), the “Φoff absolute quantum yield before the reaction with TCO” value is 0.017. Also, in data set [2] (Table 2), the “λem maximum emission wavelength” value was determined as 530 nm, the “λex largest excitation maxima” value worked out at 401 nm, the “Φon absolute quantum yield” value was 0.325 and the “fluorescence amplification rate (on/off)” value is recorded as 24. In addition, in data set [2] (Table 2), the “Φoff absolute quantum yield before the reaction with TCO” value was determined as 0.017.
With `Cc1nnc(-c2ccc(CNC(=O)c3ccn4c5c(c(-c6ccccc6)c4c3)CN(CCCNC(=O)OC(C)(C)C)C5=O)cc2)nn1` [Comparative Example 3, tert-butyl (3-(7-((4-(6-methyl-1,2,4,5-tetrazin-3-yl)benzyl)carbamoyl)-3-oxo-9-phenyl-1,3-dihydro-2H-pyrrolo[3,4-b]indolizin-2-yl)propyl)carbamate], the “K2 second rate constant value” in data set [1] (Table 1, measured at 20° C.) is recorded as 15 m^−1s^−1. Also, in data set [1] (Table 2, measured at 20° C.), the “K2 second rate constant value” stood at 15 m^−1s^−1. Besides, in data set [2] (Table 1), the “λem maximum emission wavelength” value is 493 nm, the “λex largest excitation maxima” value was 375 nm, the “Φon absolute quantum yield” value was 0.616 and the “fluorescence amplification rate (on/off)” value was determined as 67. The “Φoff absolute quantum yield before the reaction with TCO” value in data set [2] (Table 1) is 0.012. In data set [2] (Table 2), the “λem maximum emission wavelength” value is recorded as 493 nm, the “λex largest excitation maxima” value was determined as 375 nm, the “Φon absolute quantum yield” value came to 0.616 and the “fluorescence amplification rate (on/off)” value was determined as 67. The “Φoff absolute quantum yield before the reaction with TCO” value in data set [2] (Table 2) came to 0.012.
For the compound `COc1ccc(-c2c3c(n4ccc(-c5nnc(C)nn5)cc24)C(=O)N(CCCNC(=O)OC(C)(C)C)C3)cc1` [Example 2, tert-butyl (3-(9-(4-methoxyphenyl)-7-(6-methyl-1,2,4,5-tetrazin-3-yl)-3-oxo-1,3-dihydro-2H-pyrrolo[3,4-b]indolizin-2-yl)propyl)carbamate], in data set [1] (Table 1, measured at 20° C.), the “K2 second rate constant value” turned out to be 23 m^−1s^−1. In addition, in data set [2] (Table 1), the “λem maximum emission wavelength” value came out at 505 nm, the “λex largest excitation maxima” value stood at 383 nm, the “Φon absolute quantum yield” value is 0.485 and the “fluorescence amplification rate (on/off)” value is >1,000. The “Φoff absolute quantum yield before the reaction with TCO” value in data set [2] (Table 1) turned out to be 0.001.
On to `CC(=O)c1ccn2c3c(c(-c4ccc(-c5nnc(C)nn5)cc4)c2c1)CN(CCCNC(=O)OC(C)(C)C)C3=O` [Comparative Example 1, tert-butyl (3-(7-acetyl-9-(4-(6-methyl-1,2,4,5-tetrazin-3-yl)phenyl)-3-oxo-1,3-dihydro-2H-pyrrolo[3,4-b]indolizin-2-yl)propyl)carbamate], for which the “K2 second rate constant value” in data set [1] (Table 1, measured at 20° C.) is reported as 21 m^−1s^−1. Also, in data set [2] (Table 1), the “λem maximum emission wavelength” value was found to be 532 nm, the “λex largest excitation maxima” value stood at 416 nm, the “Φon absolute quantum yield” value is on record as 0.168 and the “fluorescence amplification rate (on/off)” value was 20. Moreover, the “Φoff absolute quantum yield before the reaction with TCO” value in data set [2] (Table 1) is on record as 0.011.
